Test results taken from patent publication US20230183592A1, “[…] ORGANO[…] AS NON-[…]-WEAR AGENTS” (priority 2020, published 2023).
Read-outs that look alike come from different tables or passages of the source.

What was measured:
[1] = sum of five 0/1 risk factors, 0 (lack of risk) to 5 (very high multiple risk)
From the text: The last column corresponds to a risk level score for the safety of these molecules for use in oils such as turbine oils and their alleged cabin toxicity. […] A 0 value indicates a lack of risk, and a 5 value indicates a very high multiple risk. For each risk, a factor 0 or 1 is assigned based on whether the value is above or below a threshold.

[2] = biological target: T1, BuChE from equine serum (eqBuChE) (Equus caballus, UniProt P81908); experiment: biochemical; assay type: biochemical
T1 construct: The BuChE freeze-dried from equine serum (eqBuChE, Sigma Aldrich); purchased Sigma Aldrich; host or cells: equine serum (natural source)
Description: (§1) In the extent that the toxic activity of TCP especially involves its action on cholinesterases, the effect of the compounds used according to the invention, as well as comparative compounds, on two cholinesterases was studied. The required concentration values of each compound to inhibit 50% of the activity of two cholinesterases were measured.
(§2) The acetylthiocholine and butyrylthiocholine iodide, and 5,5-dithiobis (2-nitrobenzoic) acid (DTNB) were purchased from Sigma Aldrich (Steinheim, Germany).
(§3) In the procedure, 100 μL of 0.3 mM DTNB dissolved in phosphate buffer, pH 7.4, were added in 96-well plates, followed by 50 μL solution of the test compound and 50 μL enzyme (final 0.05 U). After 5 minutes of pre-incubation at 25° C., the reaction was initiated by injecting 50 μL of 0.1 mM acetyl or butyryl thiocholine iodide solution. The acetyl or butyryl thiocholine hydrolysis was followed by the formation of yellow 5-thio 2-nitrobenzoate anion as the product of the reaction of DTNB with the thiocholine released by the enzymatic hydrolysis of the acetyl or butyryl thiocholine, at a wavelength of 412 nm, using a microplate reader (Synergy 2, Biotek, Colmar, France). The compounds to be tested were dissolved to 5×10^−3M in analytical grade DMSO. Donepezil or tacrine were used as reference standards. The absorption increase rate at 412 nm was determined 4 minutes after the addition of the acetyl or butyryl thiocholine iodide solution. The tests were carried out with a blank containing all the compounds except the acetyl or butyryl thiocholine in order to take into account non-enzymatic reactions.
(§4) The percentage of inhibition due to the presence of the test compounds was calculated using the following expression: […]
(§5) wherein vi is the rate calculated in the presence of the inhibitor, and v0 is the enzymatic activity.
(§6) All the experiments were carried out in n=3.

[3] = biological target: T2, human erythrocyte AChE (hAChE) (Homo sapiens, UniProt P22303); experiment: biochemical; assay type: biochemical
T2 construct: The human erythrocyte AChE (hAChE, aqueous buffer solution); purchased Sigma Aldrich; host or cells: human erythrocytes (natural source)
Description: as §1, §2, §3, §4, §5, §6

[4] = European Chemicals Agency website; cited from earlier work
[5] = equine serum BuChE, Ellman method, 5 min pre-incubation at 25° C., n=3

T1 sequence (P81908 whole entry): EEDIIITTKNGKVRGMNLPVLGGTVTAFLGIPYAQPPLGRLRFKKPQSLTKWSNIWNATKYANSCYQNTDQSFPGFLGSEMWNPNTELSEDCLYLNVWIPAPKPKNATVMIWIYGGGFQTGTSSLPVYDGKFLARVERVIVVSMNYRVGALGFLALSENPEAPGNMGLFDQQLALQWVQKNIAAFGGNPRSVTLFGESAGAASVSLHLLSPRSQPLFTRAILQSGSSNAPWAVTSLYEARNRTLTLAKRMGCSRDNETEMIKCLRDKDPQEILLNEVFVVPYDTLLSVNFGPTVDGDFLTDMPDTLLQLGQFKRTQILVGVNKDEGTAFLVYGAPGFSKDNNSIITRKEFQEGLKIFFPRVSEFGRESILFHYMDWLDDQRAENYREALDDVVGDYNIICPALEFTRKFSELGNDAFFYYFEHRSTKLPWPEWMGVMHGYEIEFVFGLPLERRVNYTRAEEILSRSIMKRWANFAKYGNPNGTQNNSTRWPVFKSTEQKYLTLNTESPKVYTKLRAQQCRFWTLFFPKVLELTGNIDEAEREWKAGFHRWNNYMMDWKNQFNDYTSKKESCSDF
T2 sequence (P22303 32-617 isoform P22303-2 limits assumed): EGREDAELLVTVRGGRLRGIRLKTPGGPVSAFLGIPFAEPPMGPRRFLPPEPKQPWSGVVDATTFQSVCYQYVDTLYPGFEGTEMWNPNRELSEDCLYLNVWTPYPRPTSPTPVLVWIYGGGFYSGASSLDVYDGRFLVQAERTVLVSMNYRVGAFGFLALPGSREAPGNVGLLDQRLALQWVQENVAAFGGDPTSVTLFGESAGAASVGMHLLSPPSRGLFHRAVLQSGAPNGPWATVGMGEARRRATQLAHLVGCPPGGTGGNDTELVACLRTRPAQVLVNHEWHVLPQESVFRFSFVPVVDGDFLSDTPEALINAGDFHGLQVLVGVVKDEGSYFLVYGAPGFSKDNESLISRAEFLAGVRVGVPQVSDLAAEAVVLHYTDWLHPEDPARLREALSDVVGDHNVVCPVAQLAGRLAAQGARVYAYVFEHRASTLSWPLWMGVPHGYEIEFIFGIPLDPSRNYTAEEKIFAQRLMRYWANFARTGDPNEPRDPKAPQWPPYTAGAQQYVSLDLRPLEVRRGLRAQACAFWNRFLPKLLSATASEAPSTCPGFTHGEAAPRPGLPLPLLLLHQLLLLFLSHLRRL

NP(=O)(Oc1ccccc1)Oc1ccccc1 [Compound K, Diphenyl phosphoroamidate]
Risk level [1]: 4

O=P(Oc1c(F)cccc1F)(Oc1c(F)cccc1F)Oc1c(F)cccc1F [Compound F, Tri(2,6-difluorophenyl)phosphate]
Risk level [1]: ≥3

Cc1ccccc1OP(=O)(Oc1ccccc1C)Oc1ccccc1C [Compound B, Tri(ortho-cresyl)phosphate]
Risk level [1]: 5

CCCCOC(=O)CC(SP(=S)(OCC(CC)CCCC)OCC(CC)CCCC)C(=O)OCCCC (stereo not shown) [Compound N, Dibutyl [[bis[(2-ethylhexyl)oxy]phosphinothioyl]thio]succinate]
IC50 [2]: 19 µM
IC50 [3]: 33.1 µM
Risk level [1]: ≥1
ECHA's official data [4]: No CMR, no acute toxicity

isododecyl diphenylphosphate [Compound 4]
Risk level [1]: 0

Tricresyl phosphate [Compound P]
IC50 eqBuChE [2, 5]: 0.7 µg/mL
IC50 hAChE ([3]; human erythrocyte AChE, Ellman method, 5 min pre-incubation at 25° C., n=3): 16.9 µg/mL
Risk level [1]: 4
ECHA's official data [4]: PBT* Reprotoxic

CCCCC(CC)COP(=O)(OCC(CC)CCCC)OCC(CC)CCCC (stereo not shown) [Compound M, Tris(2-ethylhexyl)phosphate]
IC50 ([2]; equine serum BuChE, Ellman method, 5 min pre-incubation at 25° C., n=3, read-out: IC50 eqBuChE (converted)): 279 µM
IC50 ([3]; human erythrocyte AChE, Ellman method, 5 min pre-incubation at 25° C., n=3, read-out: IC50 hAChE (converted)): 28.1 µM
Risk level [1]: ≥2
ECHA's official data [4]: No CMR, no acute toxicity

Trixylyl phosphate [Compound E]
Risk level [1]: ≥2
ECHA's official data [4]: PBT* Reprotoxic

CC(C)(C)c1ccc(OP(=O)(Oc2ccc(C(C)(C)C)cc2)Oc2ccc(C(C)(C)C)cc2)cc1 [Compound I2, Tri(p-tert-butylphenyl)phosphate]
Risk level [1]: 3

CCCCC(CC)COP(=O)(Oc1ccccc1)Oc1ccccc1 (stereo not shown) [Compound A, 2-ethylhexyl diphenylphosphate]
Risk level [1]: 4
ECHA's official data [4]: No CMR, no acute toxicity

Tri(4-isopropylbenzoate)phosphate [Compound G]
Risk level [1]: 2

CC(C)CCCCCCCOP(=O)(Oc1ccccc1)Oc1ccccc1 [Compound 1, isodecyl diphenylphosphate]
IC50 [2]: 93 µM
IC50 [3]: 38.4 µM
Risk level [1]: 0

O=P(Oc1ccccc1)(Oc1ccccc1)Oc1ccccc1 [Compound I1, tri phenyl phosphate]
IC50 [2]: 42.9 µM
IC50 [3]: 33.1 µM
Risk level [1]: 4
ECHA's official data [4]: No CMR, no acute toxicity

isononyl diphenylphosphate [Compound Q]
Risk level [1]: 4

Saligenin cresyl phosphate [Compound J]
IC50 eqBuChE [2, 5]: 0.7 µg/mL
Risk level [1]: 4

Cc1cccc(OP(=O)(Oc2cccc(C)c2)Oc2cccc(C)c2)c1 [Compound C, Tri(meta-cresyl)phosphate]
Risk level [1]: 5

CC(C)(C)c1ccc(OP(=O)(Oc2ccccc2)Oc2ccc(C(C)(C)C)cc2)cc1 [Compound H, di(p-tertbutylphenyl)phenylphosphate]
Risk level [1]: 3

CC(C)COP(=O)(OCC(C)C)OCC(C)C [Compound L, Tri(isobutyl)phosphate]
Risk level [1]: 4
ECHA's official data [4]: No CMR, no acute toxicity

Cc1ccc(OP(=O)(Oc2ccc(C)cc2)Oc2ccc(C)cc2)cc1 [Compound D, Tri(para-cresyl)phosphate]
Risk level [1]: 3
